Data as given in US9120795B2, “Crystalline form of a β-lactamase inhibitor” (Cubist Pharmaceuticals, Inc., priority 2013, dated 2015).
Entries after “also recorded” stand apart in the source; their conditions may differ.

Columns and labels:
[1] = Gravimetric vapour sorption (GVS/DVS), hygroscopicity; format: physicochemical; settings: DVS, 25° C., 0-90% RH; sulfate
Method: Sorption isotherms were obtained using a SMS DVS Intrinsic moisture sorption analyser, controlled by DVS Intrinsic Control software v1.0.1.2 (or v 1.0.1.3). The sample temperature was maintained at 25° C. by the instrument controls. The humidity was controlled by mixing streams of dry and wet nitrogen, with a total flow rate of 200 ml/min The relative humidity was measured by a calibrated Rotronic probe (dynamic range of 1.0-100% RH), located near the sample. The weight change, (mass relaxation) of the sample as a function of % RH was constantly monitored by the microbalance (accuracy ±0.005 mg).
Typically 5-20 mg of sample was placed in a tared mesh stainless steel basket under ambient conditions. The sample was loaded and unloaded at 40% RH and 25° C. (typical room conditions). A moisture sorption isotherm was performed as outlined below (2 scans giving 1 complete cycle). The standard isotherm was performed at 25° C. at 10% RH intervals over a 0-90% RH range Data analysis was undertaken in Microsoft Excel using DVS Analysis Suite v6.2 (or 6.1 or 6.0).
The sample was recovered after completion of the isotherm and re-analysed by XRPD.

[2] = test system: Eco isogenic, OXA-15; test: Synergy MIC (sMIC) assay; format: cell-based, E. coli; settings: OXA-15, isogenic Eco; CXA-101 at 4 μg/mL
Method: (§1) The synergy MIC (sMIC) assay determines the concentration of the BLI required to potentiate the activity of a fixed concentration of a β-lactam antibiotic against β-lactamase producing bacterial strains. The experimental protocol was performed according to Clinical and Laboratory Standards Institute (CLSI) guidelines with modifications as described below (CLSI guidelines can be derived from the CLSI document M07-A9 published in January 2012: “Methods for Dilution Antimicrobial Susceptibility Tests for Bacteria That Grow Aerobically; Approved Standard-Ninth Edition”). The assay is set-up by serially diluting the BLI across 11 of the 12 wells in each row of a 96-well broth microdilution assay plate, adding the β-lactam at a fixed concentration to all wells in the assay plate, inoculating the assay plate with bacterial strains, and determining the lowest concentration of BLI required to inhibit overnight bacterial growth.
(§2) To prepare for MIC testing, frozen glycerol stocks of clinical isolates (Klebsiella pneumoniae, Eschericia coli, Enterobacter spp, Citrobacter spp, or Pseudomonas aeruginosa) were used to streak for isolated colonies on rich, non-selective, tryptic soy agar containing 5% sheep's blood (TSAB). Frozen glycerol stocks of laboratory engineered, isogenic E. coli strains, which contain cloned β-lactamase expressing plasmids were used to streak for isolated colonies on rich, selective LB agar supplemented with 25 μg/mL tetracycline to maintain the plasmid. All strains were incubated at 37° C. for 18-24 hrs.
(§3) On the day of testing, primary cultures were started by scraping off 5-10 colonies from the TSAB plates containing clinical strains or the tetracycline supplemented LB plates containing engineered strains. The clinical strain material was suspended in ˜5 mL of cation adjusted Mueller Hinton Broth (CAMHB) in 14 mL culture tubes. The engineered strain material was suspended in CAMHB (supplemented with tetracycline at 25 μg/mL) in 14 mL culture tubes. All strains were incubated at 37° C. with aeration (200 rpm) for ˜2 hrs until the OD600 was ≧0.1.
(§4) The two compound components of the assay were each prepared in CAMHB and added to the 96-well broth microdilution assay plates. 50 μL of the BLI was added to each well of the assay plate in 2-fold dilutions with final concentrations ranging from 128 to 0.13 μg/mL. 25 μL of the β-lactam was added to all wells in the broth microdilution plates at a final concentration of 4 μg/mL. Inoculum cultures were prepared by standardizing the primary cultures to OD600=0.1 and then adding 20 μL of the adjusted primary culture per 1 mL CAMHB for clinical strains or CAMHB (supplemented with tetracycline at 100 μg/mL) for isogenic strains, so that the final inoculum density was ˜10^5 colony forming units per milliliter. Diluted inoculum cultures were used to inoculate 25 μL per well in 96-well broth microdilution assay plates. […]
(§5) Plates were incubated for 18-20 hours at 37° C. with aeration (200 rpm). Following incubation, growth was confirmed visually placing plates over a viewing apparatus (stand with a mirror underneath) and then OD600 was measured using a SpectraMax 340PC384 plate reader (Molecular Devices, Sunnyvale, Calif.). Growth was defined as turbidity that could be detected with the naked eye or achieving minimum OD600 of 0.1. sMIC values were defined as the lowest concentration producing no visible turbidity. […]

[3] = test system: Eco isogenic, CTX-M-15; test: Synergy MIC (sMIC) assay; format: cell-based, E. coli; settings: CTX-M-15, isogenic Eco; CXA-101 at 4 μg/mL
Method: as §1, §2, §3, §4, §5

[4] = test system: Eco isogenic, P99; test: Synergy MIC (sMIC) assay; format: cell-based, E. coli; settings: CXA-101 at 4 μg/mL
Method: as §1, §2, §3, §4, §5

[5] = test system: Eco isogenic, SHV-12; test: Synergy MIC (sMIC) assay; format: cell-based, E. coli; settings: SHV-12, isogenic Eco; CXA-101 at 4 μg/mL
Method: as §1, §2, §3, §4, §5

[6] = test system: Eco isogenic, KPC-2; test: Synergy MIC (sMIC) assay; format: cell-based, E. coli; settings: KPC-2, isogenic Eco; CXA-101 at 4 μg/mL
Method: as §1, §2, §3, §4, §5

[7] = Solid form stability at ambient conditions, XRPD; format: physicochemical
Method: X-Ray Powder Diffraction patterns were collected on a Bruker D8 diffractometer using Cu Kα radiation (40 kV, 40 mA), 0-20 goniometer, and divergence of V4 and receiving slits, a Ge monochromator and a Lynxeye detector. The instrument is performance checked using a certified Corundum standard (NIST 1976). The software used for data collection was Diffrac Plus XRD Commander v2.6.1 and the data were analysed and presented using Diffrac Plus EVA v13.0.0.2 or v15.0.0.0. Samples were run under ambient conditions as flat plate specimens using powder as received. The sample was gently packed into a cavity cut into polished, zero-background (510) silicon wafer. The sample was rotated in its own plane during analysis. The details of the data collection are: angular range: 2 to 42 °2θ; step size: 0.05 °2θ; collection time: 0.5 s/step. Amorphous material (˜60 mg) was generated as in Procedure 1. The amorphous material was suspended in different solvent systems (3 mL) at 50° C. A sample was withdrawn after 3 h and 24 h. The final product was filtered after 48 h and analysed by XRPD. The solids isolated were re-analysed again by XRPD after few days at ambient conditions (˜25° C. and ˜40% RH).

O=C1N2C[C@@H](CC[C@H]2c2nnco2)N1OS(=O)(=O)[O-].[Na+] [Hydrate 1, sodium (2S,5R)-2-(1,3,4-oxadiazol-2-yl)-7-oxo-1,6-diazabicyclo[3.2.1]octan-6-yl sulfate]
hygroscopicity relative to the amorphous form [1]: significantly less hygroscopic than the amorphous form; also recorded: low hygroscopicity relative to amorphous
sMIC [2]: B (B = 1-2 μg/mL)
sMIC [3]: A (A = 0.25-0.5 μg/mL)
sMIC [4]: AA (AA = <0.25 μg/mL)
sMIC [5]: B (B = 1-2 μg/mL)
sMIC [6]: AA (AA = <0.25 μg/mL)
change of crystal form on storage ([7]; 25° C. at 40% relative humidity over 2 days (FIG. 2)): little to no change
relative stability among the crystalline forms ([7]; ambient conditions (25° C. and 40% RH)): most stable crystalline form
stability of the form (Summary of Forms, Description) ([7]; sulfate): Stable tri-hydrate
